Test results taken from patent US20260049084A1, “ENPP1 MODULATORS AND PRODUCTS AND USES THEREOF” (Gossamer Bio Services, Inc., priority 2022, published 2026).
pIC50: −log10 of the molar value.

Columns and labels:
[1] = target: Recombinant human ENPP3 protein (Homo sapiens (Human), UniProt O14638); assay: ENPP3 cGAMP Biochemical Assay; conditions: 70.5 nM ENPP3, 120 μM 2′3′-cGAMP substrate, TR-FRET
Procedure: ENPP3 cGAMP Biochemical Assay
Compounds were added to 384 well Proxiplate (PerkinElmer, Waltham MA) at 100 nl/well from DMSO stocks using Echo (Labcyte, San Jose CA). Recombinant human ENPP3 protein (Acro Biosystems, Newwark DE) was prepared in assay buffer (50 mM Tris pH7.5, 1 mM TCEP pH7.0, 2 mM MgCl2, 2 mM CaCl2), 2 mM ZnCl2 and 0.005% Tween20) and added at 2 μl/well. The plate was sealed, centrifuged at 1000 rpm for 1 minute and incubated at room temperature for 30 minutes before 2 μl substrate 2′3′-cGAMP (R&D Systems, Minneapolis MN) in assay buffer was added to each well to a final concentration of 70.5 nM ENPP3 and 120 μM 2′3′-cGAMP. The plate was sealed and centrifuged at 1000 rpm for 1 minute again. After incubation at 25° C. for 60 minutes, Terbium labelled AMP/GMP antibody and AMP/GMP HiLyte647 Tracer (BellBrook Labs, Fitchburg WI) in detection buffer (50 mM Tris pH7.5, 20 mM EDTA and 0.1% Prionex) were added to the reaction mixture to a final concentration of 475 nM and 3 nM respectively. The assay plate was incubated at room temperature for 120 minutes. TR-FRET signal was detected using Envision (PerkinElmer, Waltham MA).

[2] = target: Recombinant human ENPP1 protein (Homo sapiens (Human), UniProt P22413); assay: ENPP1 cGAMP Biochemical Assay; conditions: 0.5 nM ENPP1, 1000 nM 2′3′-cGAMP substrate, TR-FRET
Procedure: ENPP1 cGAMP Biochemical Assay
Compounds were added to 384 well Proxiplate (PerkinElmer, Waltham MA) at 100 nl/well from DMSO stocks using Echo (Labcyte, San Jose CA). Recombinant human ENPP1 protein (R&D Systems, Minneapolis MN) was prepared in assay buffer (50 mM Tris pH7.5, 1 mM TCEP pH7.0, 2 mM MgCl2 and 0.005% Tween20) and added at 10 μl/well. The plate was sealed, centrifuged at 1000 rpm for 1 minute and incubated at room temperature for 30 minutes before 5 μl substrate 2′3′-cGAMP (R&D Systems, Minneapolis MN) in assay buffer was added to each well to a final concentration of 0.5 nM ENPP1 and 1000 nM 2′3′-cGAMP. The plate was sealed and centrifuged at 1000 rpm for 1 minute again. After incubation at 25° C. for 60 minutes, Terbium labelled AMP/GMP antibody and AMP/GMP HiLyte647 Tracer (BellBrook Labs, Fitchburg WI) in detection buffer (50 mM Tris pH7.5, 20 mM EDTA and 0.1% Prionex) were added to the reaction mixture to a final concentration of 2 nM (5 μl/well). The assay plate was incubated at room temperature for 120 minutes. TR-FRET signal was detected using Envision (PerkinElmer, Waltham MA).

Chain of Recombinant human ENPP3 protein (O14638 whole entry): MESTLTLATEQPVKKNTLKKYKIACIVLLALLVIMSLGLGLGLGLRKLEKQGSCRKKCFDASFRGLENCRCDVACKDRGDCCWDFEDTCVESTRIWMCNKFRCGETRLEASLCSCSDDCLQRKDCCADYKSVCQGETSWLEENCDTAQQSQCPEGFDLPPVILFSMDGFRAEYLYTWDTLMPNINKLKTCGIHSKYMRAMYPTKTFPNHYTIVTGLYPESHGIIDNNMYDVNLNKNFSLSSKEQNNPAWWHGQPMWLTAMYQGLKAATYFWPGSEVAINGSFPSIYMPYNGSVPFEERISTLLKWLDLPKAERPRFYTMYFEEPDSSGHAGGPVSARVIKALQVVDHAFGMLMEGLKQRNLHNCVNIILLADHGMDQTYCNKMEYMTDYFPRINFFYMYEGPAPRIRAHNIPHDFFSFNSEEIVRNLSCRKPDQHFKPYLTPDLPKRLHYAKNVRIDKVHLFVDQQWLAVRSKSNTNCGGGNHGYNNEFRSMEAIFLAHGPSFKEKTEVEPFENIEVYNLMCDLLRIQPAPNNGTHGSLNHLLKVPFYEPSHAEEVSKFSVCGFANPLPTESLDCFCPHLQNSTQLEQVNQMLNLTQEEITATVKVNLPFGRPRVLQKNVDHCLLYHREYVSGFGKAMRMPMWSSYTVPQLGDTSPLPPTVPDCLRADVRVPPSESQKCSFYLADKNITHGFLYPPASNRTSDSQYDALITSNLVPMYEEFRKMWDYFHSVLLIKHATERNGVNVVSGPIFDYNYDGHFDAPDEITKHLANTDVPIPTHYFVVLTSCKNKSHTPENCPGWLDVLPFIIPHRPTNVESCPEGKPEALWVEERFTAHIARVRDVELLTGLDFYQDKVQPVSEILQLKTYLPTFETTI
Chain of Recombinant human ENPP1 protein (P22413 whole entry): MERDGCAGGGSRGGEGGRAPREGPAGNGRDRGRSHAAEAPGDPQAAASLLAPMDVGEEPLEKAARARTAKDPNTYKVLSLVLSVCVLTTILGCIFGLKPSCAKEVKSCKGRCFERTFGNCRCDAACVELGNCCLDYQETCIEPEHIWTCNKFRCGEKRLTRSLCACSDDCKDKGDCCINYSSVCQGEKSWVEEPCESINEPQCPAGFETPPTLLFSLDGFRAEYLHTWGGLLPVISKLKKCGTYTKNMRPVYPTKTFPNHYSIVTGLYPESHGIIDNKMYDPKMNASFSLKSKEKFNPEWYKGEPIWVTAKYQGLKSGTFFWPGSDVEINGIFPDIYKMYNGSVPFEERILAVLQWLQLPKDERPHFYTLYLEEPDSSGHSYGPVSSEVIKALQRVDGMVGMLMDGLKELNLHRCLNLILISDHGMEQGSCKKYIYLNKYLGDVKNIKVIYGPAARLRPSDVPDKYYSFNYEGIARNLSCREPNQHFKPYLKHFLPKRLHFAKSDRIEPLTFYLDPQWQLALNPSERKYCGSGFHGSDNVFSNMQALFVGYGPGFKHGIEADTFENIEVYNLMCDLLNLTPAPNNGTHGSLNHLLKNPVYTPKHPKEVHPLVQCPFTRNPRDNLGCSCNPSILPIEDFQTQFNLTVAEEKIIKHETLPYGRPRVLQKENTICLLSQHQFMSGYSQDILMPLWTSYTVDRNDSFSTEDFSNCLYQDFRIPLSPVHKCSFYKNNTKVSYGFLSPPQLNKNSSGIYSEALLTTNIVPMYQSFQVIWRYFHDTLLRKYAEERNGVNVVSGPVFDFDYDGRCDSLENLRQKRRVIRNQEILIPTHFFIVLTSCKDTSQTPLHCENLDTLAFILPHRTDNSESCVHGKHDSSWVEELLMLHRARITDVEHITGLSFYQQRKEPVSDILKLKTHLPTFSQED

Structure (SMILES)	pIC50 [1]	pIC50 [2]
C#CCn1nc(Cl)c2c(N(C)Cc3ccc([S@@](C)(=N)=O)cc3)ccnc21 [Compound 9C, (S)-(4-(((3-chloro-1-(prop-2-yn-1-yl)-1H-pyrazolo[3,4-b]pyridin-4-yl)(methyl)amino)methyl)phenyl)(imino)(methyl)-λ^6-sulfanone]	≤ 6.00	> 8.00
C#CCn1nc(Cl)c2c(NCc3ccc(S(C)(=N)=O)cc3)ccnc21 (stereo not drawn) [Compound 9D, (4-(((3-chloro-1-(prop-2-yn-1-yl)-1H-pyrazolo[3,4-b]pyridin-4-yl)amino)methyl)phenyl)(imino)(methyl)-λ6-sulfanone]	7.00 to 8.00	> 8.00
CCn1ncc2c(NCc3ccc(S(C)(=N)=O)cc3)ccnc21 (stereo not drawn) [Compound 9E, (4-(((1-ethyl-1H-pyrazolo[3,4-b]pyridin-4-yl)amino)methyl)phenyl)(imino)(methyl)-λ6-sulfanone]	≤ 6.00	≤ 6.00
CS(=N)(=O)c1ccc(CNc2ccnc3c2c(Cl)nn3CC#N)cc1 (stereo not drawn) [Compound 9F, 2-(3-chloro-4-((4-(S-methylsulfonimidoyl)benzyl)amino)-1H-pyrazolo[3,4-b]pyridin-1-yl)acetonitrile]	7.00 to 8.00	> 8.00
C[S@](=N)(=O)c1ccc(CNc2ccnc3c2c(Cl)nn3CC#N)cc1 [Compound 9G, (S)-2-(3-chloro-4-((4-(S-methylsulfonimidoyl)benzyl)amino)-1H-pyrazolo[3,4-b]pyridin-1-yl) acetonitrile]	≤ 6.00	6.00 to 7.00
C[S@@](=N)(=O)c1ccc(CNc2ccnc3c2c(Cl)nn3CC#N)cc1 [Compound 9H, (R)-2-(3-chloro-4-((4-(S-methylsulfonimidoyl)benzyl)amino)-1H-pyrazolo[3,4-b]pyridin-1-yl)acetonitrile]	7.00 to 8.00	> 8.00
CCn1nc(Cl)c2c(NCc3ccc(S(=N)(=O)CCOC)cc3)ccnc21 (stereo not drawn) [Compound 9I, (4-(((3-chloro-1-ethyl-1H-pyrazolo[3,4-b]pyridin-4-yl)amino)methyl)phenyl)(imino)(2-methoxyethyl)-λ6-sulfanone]	6.00 to 7.00	> 8.00
CCn1nc(Cl)c2c(NCc3ccc(S(=N)(=O)CC4CC4)cc3)ccnc21 (stereo not drawn) [Compound 9J, (4-(((3-chloro-1-ethyl-1H-pyrazolo[3,4-b]pyridin-4-yl)amino)methyl)phenyl) (cyclopropylmethyl)(imino)-λ^6-sulfanone]	6.00 to 7.00	> 8.00
CCn1nc(Cl)c2c(NCc3ccc(S(=N)(=O)CC)cc3)ccnc21 (stereo not drawn) [Compound 9K, (4-(((3-chloro-1-ethyl-1H-pyrazolo[3,4-b]pyridine-4-yl)amino)methyl)phenyl)(ethyl) (imino)-λ^6-sulfanone]	6.00 to 7.00	> 8.00
CCn1nc(Cl)c2c(NCc3ccc([S@](C)(=N)=O)cc3)ccnc21 [Compound 9L, (R)-(4-(((3-chloro-1-ethyl-1H-pyrazolo[3,4-b]pyridin-4-yl)amino)methyl)phenyl)(imino) (methyl)-λ^6-sulfanone]	6.00 to 7.00	> 8.00
CCn1nc(Cl)c2c(NCc3ccc([S@@](C)(=N)=O)cc3)ccnc21 [Compound 9M, (S)-(4-(((3-chloro-1-ethyl-1H-pyrazolo[3,4-b]pyridin-4-yl)amino)methyl)phenyl)(imino) (methyl)-λ^6-sulfanone]	≤ 6.00	7.00 to 8.00
CCn1nc(Cl)c2c(NCc3ccc([S@](=N)(=O)CCOC)cc3)ccnc21 [Compound 9N, (R)-(4-(((3-chloro-1-ethyl-1H-pyrazolo [3,4-b]pyridine-4-yl)amino)methyl)phenyl)(imino)(2-methoxyethyl)-λ^6-sulfanone]	≤ 6.00	> 8.00
C#CCn1nc(Cl)c2c(NCc3ccc(S(C)(=O)=NC)cc3)ccnc21 (stereo not drawn) [Compound 10A, (4-(((3-chloro-1-(prop-2-yn-1-yl)-1H-pyrazolo[3,4-b]pyridin-4-yl)amino)methyl)phenyl)(methyl)(methylimino)-λ6-sulfanone]	≤ 6.00	6.00 to 7.00
CN=S(C)(=O)c1ccc(CNc2ccnc3c2c(Cl)nn3CC#N)cc1 (stereo not drawn) [Compound 10D, 2-(3-chloro-4-((4-(N,S-dimethylsulfonimidoyl)benzyl)amino)-1H-pyrazolo[3,4-b]pyridin-1-yl)acetonitrile]	≤ 6.00	6.00 to 7.00
CN[S@](=N)(=O)c1ccc(CNc2ccnc3c2c(Cl)nn3CC#N)cc1 [Compound 10E, (S)-4-(((3-chloro-1-(cyanomethyl)-1H-pyrazolo[3,4-b]pyridin-4-yl)amino)methyl)-N-methylbenzenesulfonimidamide]	6.00 to 7.00	> 8.00
CN[S@@](=N)(=O)c1ccc(CNc2ccnc3c2c(Cl)nn3CC#N)cc1 [Compound 10F, (R)-4-(((3-chloro-1-(cyanomethyl)-1H-pyrazolo[3,4-b]pyridin-4-yl)amino)methyl)-N-methylbenzenesulfonimidamide]	≤ 6.00	7.00 to 8.00
C#CCn1nc(Cl)c2c(NCc3ccc(S(=N)(N)=O)cc3)ccnc21 (stereo not drawn) [Compound 11A, 4-(((3-chloro-1-(prop-2-yn-1-yl)-1H-pyrazolo[3,4-b]pyridin-4-yl)amino)methyl)benzenesulfonimidamide]	7.00 to 8.00	> 8.00
N#CCn1nc(Cl)c2c(NCc3ccc(S(=N)(N)=O)cc3)ccnc21 (stereo not drawn) [Compound 11B, 4-(((3-chloro-1-(cyanomethyl)-1H-pyrazolo[3,4-b]pyridin-4-yl)amino)methyl)benzenesulfonimidamide]	6.00 to 7.00	> 8.00
CCn1nc(Cl)c2c(NCc3ccc(S(=N)(N)=O)cc3)ccnc21 (stereo not drawn) [Compound 11C, 4-(((3-chloro-1-ethyl-1H-pyrazolo[3,4-b]pyridin-4-yl)amino)methyl)benzenesulfonimidamide]	≤ 6.00	> 8.00
C#CCn1nc(Cl)c2c(NCc3ccc(S(N)(=O)=NC)cc3)ccnc21 (stereo not drawn) [Compound 12A, 4-(((3-chloro-1-(prop-2-yn-1-yl)-1H-pyrazolo[3,4-b]pyridin-4-yl)amino)methyl)-N′-methylbenzenesulfonimidamide]	7.00 to 8.00	> 8.00
CN=S(N)(=O)c1ccc(CNc2ccnc3c2c(Cl)nn3CC#N)cc1 (stereo not drawn) [Compound 12B, 4-(((3-chloro-1-(cyanomethyl)-1H-pyrazolo[3,4-b]pyridin-4-yl)amino)methyl)-N′-methylbenzenesulfonimidamide]	6.00 to 7.00	> 8.00
CCn1nc(Cl)c2c(NCc3ccc([S@@](N)(=O)=NC)cc3)ccnc21 [Compound 12C, (S)-4-(((3-chloro-1-ethyl-1H-pyrazolo[3,4-b]pyridin-4-yl)amino)methyl)-N′-methyl benzenesulfonimidamide]	≤ 6.00	7.00 to 8.00
CCn1nc(Cl)c2c(NCc3ccc([S@](N)(=O)=NC)cc3)ccnc21 [Compound 12D, (R)-4-(((3-chloro-1-ethyl-1H-pyrazolo[3,4-b]pyridin-4-yl)amino)methyl)-N′-methyl benzenesulfonimidamide]	≤ 6.00	7.00 to 8.00
CCn1nc(Cl)c2c(NCc3ccc(S(N)(=O)=NCC(F)(F)F)cc3)ccnc21 (stereo not drawn) [Compound 12E, 4-(((3-chloro-1-ethyl-1H-pyrazolo[3,4-b]pyridin-4-yl)amino)methyl)-N′-(2,2,2-trifluoroethyl) benzenesulfonimidamide]	≤ 6.00	7.00 to 8.00
CCn1nc(Cl)c2c(NCc3ccc(S(N)(=O)=NC#N)cc3)ccnc21 (stereo not drawn) [Compound 12F, 4-(((3-chloro-1-ethyl-1H-pyrazolo[3,4-b]pyridine-4-yl)amino)methyl)-N′-cyano benzenesulfonimidamide]	7.00 to 8.00	> 8.00
C#CCn1nc(Cl)c2c(NCC3CCN(S(C)(=N)=O)CC3)ccnc21 (stereo not drawn) [Compound 13A, 3-chloro-N-((1-(S-methylsulfonimidoyl)piperidin-4-yl)methyl)-1-(prop-2-yn-1-yl)-1H-pyrazolo[3,4-b]pyridin-4-amine]	7.00 to 8.00	> 8.00
C#CCn1nc(Cl)c2c(NCC3CCN([S@](C)(=N)=O)CC3)ccnc21 [Compound 13B, (S)-3-chloro-N-((1-(S-methylsulfonimidoyl)piperidin-4-yl)methyl)-1-(prop-2-yn-1-yl)-1H-pyrazolo[3,4-b]pyridin-4-amine]	7.00 to 8.00	> 8.00
